Experimental data as given in US7034050B2, “Pseudopeptides growth hormone secretagogues” (priority 2004, dated 2006).

Assays:
[1] = biological target: T1, human pituitary gland tissues (Homo sapiens, UniProt Q92847); assay: binding affinity to human pituitary gland tissues; conditions: compared with ghrelin, hexarelin, MK 0677 and JMV 1843
T1 construct: from tissue; host or cells: human pituitary gland tissue

GH release [2] = assay: GH release in vivo (neonatal rats injected subcutaneously); parameters: species or system rat
[3] = tested on: rat epididynial adipocytes; assay: binding affinity to rat epididynial adipocytes; conditions: compared with rat ghrelin, MK 0677 and hexarelin
GH release [4] = assay: stimulation of GH release in vitro; format: cell-based

T1 sequence (Q92847 whole entry): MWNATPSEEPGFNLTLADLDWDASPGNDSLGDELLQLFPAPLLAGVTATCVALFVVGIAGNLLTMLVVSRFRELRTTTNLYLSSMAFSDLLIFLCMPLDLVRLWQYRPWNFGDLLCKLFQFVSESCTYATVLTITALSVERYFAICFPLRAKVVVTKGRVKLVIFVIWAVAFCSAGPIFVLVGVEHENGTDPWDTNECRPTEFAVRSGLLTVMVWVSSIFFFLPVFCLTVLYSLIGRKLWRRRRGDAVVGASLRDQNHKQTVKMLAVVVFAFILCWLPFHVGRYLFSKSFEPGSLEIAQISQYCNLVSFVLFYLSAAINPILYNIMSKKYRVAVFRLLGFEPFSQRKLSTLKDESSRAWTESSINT

Substance | binding affinity to human pituitary gland tissues [1] | potency in stimulating the GH release in vivo (GH release [2]) | amount of growth hormone released (GH release [2]; neonatal rats, subcutaneous injection, compared with MK 0677 and hexarelin) | binding affinity to rat epididynial adipocytes [3] | potency in stimulating the GH release in vitro (GH release [4])
Aib-D-Trp-D-Trpψ[CH2—NH—O]Gly-NH2 [IIa] | comparable to that of the natural ligand ghrelin and superior to the binding affinity of the synthetic GH secretagogues | remarkably potent | exceeded the amount released when the standard GH secretagogues MK 0677 and hexarelin were administered | comparable to that of rat ghrelin and superior to that of MK 0677 and hexarelin | remarkably potent
Aib-D-Trp-D-Trpψ[CH═N˜O]Gly-NH2 [Ia] | comparable to that of the natural ligand ghrelin and superior to the binding affinity of the synthetic GH secretagogues | remarkably potent |  | comparable to that of rat ghrelin and superior to that of MK 0677 and hexarelin | remarkably potent
